Laboratory results: ChEMBL document CHEMBL1777730, “Antimycobacterial activity of novel 1,2,4-oxadiazole-pyranopyridine/chromene hybrids generated by chemoselective 1,3-dipolar cycloadditions of nitrile oxides” (2011)
Values after ≈ are worked out from the molar mass of the structure shown.

Tested on: Mycobacterium tuberculosis
Assay: Antimycobacterial activity against Mycobacterium tuberculosis H37Rv by agar dilution method
Assay type: functional

Structure (SMILES) | MIC [µM]
CO[C@H]1/C=C/O[C@@]2(C)Oc3c(C)c(O)c4c(O)c(c(/C=N/N5CCN(C)CC5)c(O)c4c3C2=O)NC(=O)/C(C)=C\C=C\[C@H](C)[C@H](O)[C@@H](C)[C@@H](O)[C@@H](C)[C@H](OC(C)=O)[C@@H]1C [RIFAMPIN] | 0.12 (≈ 0.0988 µg/mL)
N#CC1=C(N)OC2=C(CCC/C2=C\c2ccc(Cl)cc2)C1c1ccc(Cl)cc1 (centres undefined) | > 25
N#CC1=C(N)OC2=C(CCC/C2=C\c2ccc(F)cc2)C1c1ccc(F)cc1 (centres undefined) | > 25
COc1ccccc1/C=C1\CCCC2=C1OC(N)=C(c1nc(-c3ccccc3)no1)C2c1ccccc1OC (centres undefined) | 24.1 (≈ 12.5 µg/mL)
NNC(=O)c1ccncc1 [ISONIAZID] | 0.36 (≈ 0.0494 µg/mL)
COc1ccc(/C=C2\CCCC3=C2OC(N)=C(c2nc(-c4ccccc4)no2)[C@@H]3c2ccc(OC)cc2)cc1 | 24.1 (≈ 12.5 µg/mL)
CN1CC2=C(OC(N)=C(c3nc(-c4ccc(Cl)cc4)no3)[C@@H]2c2cccc(F)c2)/C(=C/c2cccc(F)c2)C1 | 0.73 (≈ 0.398 µg/mL)
COc1ccc(/C=C2\CN(C)CC3=C2OC(N)=C(c2nc(-c4ccc(Cl)cc4)no2)C3c2ccc(OC)cc2)cc1 (centres undefined) | 22 (≈ 12.5 µg/mL)
COc1ccc(/C=C2\CCCC3=C2OC(N)=C(C#N)C3c2ccc(OC)cc2)cc1 (centres undefined) | > 25
COc1ccccc1/C=C1\CN(C)CC2=C1OC(N)=C(c1nc(-c3ccc(Cl)cc3)no1)C2c1ccccc1OC (centres undefined) | 5.5 (≈ 3.13 µg/mL)
CC[C@@H](CO)NCCN[C@@H](CC)CO [ETHAMBUTOL] | 7.64 (≈ 1.56 µg/mL)
Cc1ccccc1/C=C1\CN(C)CC2=C1OC(N)=C(c1nc(-c3ccc(Cl)cc3)no1)C2c1ccccc1C (centres undefined) | 11.6 (≈ 6.25 µg/mL)
N#CC1=C(N)OC2=C(CCC/C2=C\c2ccccc2Cl)C1c1ccccc1Cl (centres undefined) | > 25
Cc1ccc(/C=C2\CN(C)CC3=C2OC(N)=C(c2nc(-c4ccc(Cl)cc4)no2)C3c2ccc(C)cc2)cc1 (centres undefined) | 3.28 (≈ 1.76 µg/mL)
CN1CC2=C(OC(N)=C(c3nc(-c4ccc(Cl)cc4)no3)C2c2ccc(Cl)cc2)/C(=C/c2ccc(Cl)cc2)C1 (centres undefined) | 0.35 (≈ 0.202 µg/mL)
Cc1ccccc1/C=C1\CCCC2=C1OC(N)=C(c1nc(-c3ccccc3)no1)C2c1ccccc1C (centres undefined) | > 25
CN1CC2=C(OC(N)=C(c3nc(-c4ccc(Cl)cc4)no3)C2c2ccc(Cl)cc2Cl)/C(=C/c2ccc(Cl)cc2Cl)C1 (centres undefined) | 0.31 (≈ 0.201 µg/mL)
Cc1ccc(/C=C2\CCCC3=C2OC(N)=C(C#N)C3c2ccc(C)cc2)cc1 (centres undefined) | > 25
N#CC1=C(N)OC2=C(CCC/C2=C\c2ccccc2)C1c1ccccc1 (centres undefined) | > 25
CN1CC2=C(OC(N)=C(c3nc(-c4ccc(Cl)cc4)no3)C2c2ccc(N(C)C)cc2)/C(=C/c2ccc(N(C)C)cc2)C1 (centres undefined) | 5.26 (≈ 3.13 µg/mL)
NC1=C(c2nc(-c3ccccc3)no2)C(c2cccc(F)c2)C2=C(O1)/C(=C/c1cccc(F)c1)CCC2 (centres undefined) | 12.6 (≈ 6.26 µg/mL)
NC1=C(c2nc(-c3ccccc3)no2)C(c2ccc(Cl)cc2)C2=C(O1)/C(=C/c1ccc(Cl)cc1)CCC2 (centres undefined) | 23.7 (≈ 12.5 µg/mL)
NC1=C(c2nc(-c3ccccc3)no2)C(c2ccc(F)cc2)C2=C(O1)/C(=C/c1ccc(F)cc1)CCC2 (centres undefined) | 12.6 (≈ 6.26 µg/mL)
CN1CC2=C(OC(N)=C(c3nc(-c4ccc(Cl)cc4)no3)C2c2ccccc2)/C(=C/c2ccccc2)C1 (centres undefined) | 12.3 (≈ 6.25 µg/mL)
